Target: T1, human oxytocin receptor (Homo sapiens, UniProt P30559)
T1 construct: host or cells: CHO cells (pcDNA3.1 vector)
T1 sequence (P30559 1-389): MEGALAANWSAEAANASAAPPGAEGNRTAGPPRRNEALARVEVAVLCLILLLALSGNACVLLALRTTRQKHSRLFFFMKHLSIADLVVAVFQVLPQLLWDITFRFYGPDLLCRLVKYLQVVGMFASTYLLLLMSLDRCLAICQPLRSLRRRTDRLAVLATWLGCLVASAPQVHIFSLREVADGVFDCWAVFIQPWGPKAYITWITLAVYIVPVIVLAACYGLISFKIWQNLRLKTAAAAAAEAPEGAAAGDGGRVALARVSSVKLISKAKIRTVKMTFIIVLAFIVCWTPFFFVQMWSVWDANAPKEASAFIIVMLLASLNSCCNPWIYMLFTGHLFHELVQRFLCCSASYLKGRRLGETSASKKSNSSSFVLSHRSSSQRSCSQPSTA
Experiment: Oxytocin binding in Chinese Hamster Ovary cell membranes expressing human oxytocin receptors
Conditions: 100 nM, CHO cell membranes, [3H]oxytocin, values without parentheses; for inhibition at 0.1 µM: read-out: OT % inhibition @ 100% nM
Procedure: Oxytocin Binding in Chinese Hamster Ovary Cell Membranes Expressing Human Oxytocin Receptors
The trypsin is removed by aspiration and the cells dislodged by tapping. Cell Culture medium (e.g. 30 mL for 1:30 split) is immediately added and mixed well to inactivate trypsin. 1 mL of detached cells is added to new culture flasks containing fresh Cell Culture medium (e.g. into 25 mL per T-150 flask), and mixed gently. The cells are incubated at 37° C. in 5% CO2. The medium is changed at 3 to 4 days interval (or as appropriate). […] All steps are done under sterile conditions. B. Membrane Preparation: The cells are washed twice gently with Hank's Balanced Salt solution (e.g., use 10 mL per T-150 flask). […] The contents are transferred to centrifuge tubes (50 mL size) kept in ice bath. All subsequent steps are done at 4° C. The tubes are centrifuged at 300×g for 15 min (1380 rpm on SORVAL, Model RT6000D, using rotor for 50 mL tubes). The supernatant is discarded and the cells suspended in homogenizing buffer (10 mM Tris-HCl containing 0.25 M sucrose and 1 mM EDTA, pH 7.4) ensuring that the volume of the buffer is about ten times the volume of the cell pellet. The cells are pooled into a centrifuge tube (50 mL) and homogenized with a Polytron at setting 6 for 10 sec. The homogenate is transferred into a Potter-Elvjehm homogenizer and homogenized with 3 strokes. The homogenate is centrifuged at 1500×g for 10 min at 4° C. (3100 rpm using SORVAL, model RT6000D, using rotor for 50 mL tubes). The pellet is discarded. The supernatant is centrifuged at 100,000×g for 60 min. at 4° C. (Beckman L8-80M ultracentrifuge; spin at 37,500 rpm with rotor type 70 Ti for 50 mL tubes; 38,000 rpm with type 80Ti for 15 mL tubes; or 35,800 rpm with rotor type 45Ti). The supernantant is discarded and the pellet suspended in 3 to 4 mL of Tris buffer (50 mM TRIS-HCl, pH 7.4). The protein content is estimated by the Bradford or Lowry method. The volume of the membrane suspension is adjusted with the membrane buffer (50 mM Tris-HCl containing 0.1% BSA and 0.1 mM PMSF) to give 3.0 mg/mL (or as appropriate) of protein. The membranes are aliquoted and stored at −70° C. C. Radioligand Binding Assay: In wells of a 96-well format microtiter plate, is added 90, 110 or 130 μL (to make up a final volume of 200 μL) of assay buffer containing 50 mM of Tris-HCl (pH 7.4), […], 1 mg % aprotinin, 1 mg % leupeptin, 2 mg % 1,10-phenanthroline, 10 mg % trypsin inhibitor, and 0.1 mM PMSF. The inhibitors are added on the day of the experiment. The components are mixed at room temperature, and then kept in ice bath following adjustment of the pH to 7.4. […] For oxytocin and other peptide ligands, 20 μL of 50% DMSO is added and the assay buffer volume is adjusted accordingly. To each well is added 50 μL of frozen membrane suspension thawed immediately prior to use and diluted in assay buffer to the required concentration (equivalent to 25 to 50 μg of protein/well as needed). 20 μL of 8 nM [^3H]oxytocin in the assay buffer, prepared just before use is added and incubated at room temperature for 60 min. shaking the plate on a mechanical shaker for the first 15 min. The incubation is stopped by rapid filtration of the plate contents followed by washing with ice-cold buffer (50 mM Tris-HCl, pH 7.4) using a cell harvester (Tomtek and Printed filtermat-B filter paper). The filter paper is thoroughly dried (7–12 min. in a microwave oven) and impregnated with MeltiLex B/H melt-on scintillation wax sheets and the radioactivity counted in a betaplate scintillation counter.
Binding data is either reported as percent inhibition at a certain concentration or if an IC50 was calculated, as a nanomolar concentration.

Row | inhibition at 0.1 µM [%] | Molecule | OT % inhibition @ 100% nM [%]
1 | 46 | COc1cccc(-c2cc(OC)c(C(=O)N3Cc4ccc(C(=O)NCCCn5ccnc5)n4Cc4ccccc43)cc2Cl)c1 [Example 130, 10-[(6-Chloro-3,3′-dimethoxy[1,1′-biphenyl]-4-yl)carbonyl]-N-[3-(1H-imidazol-1-yl)propyl]-10,11-dihydro-5H-pyrrolo[2,1-c][1,4]benzodiazepine-3-carboxamide] | 
2 | 58 | COc1ccccc1-c1ccc(C(=O)N2Cc3ccc(C(=O)N4CCC(N5CCCCC5)CC4)n3Cc3ccccc32)cc1OC [Example 119, {10-[(2,2′-Dimethoxy-[1,1′-biphenyl]-4-yl)carbonyl]-10,11-dihydro-5H-pyrrolo[2,1-c][1,4]benzodiazepin-3-yl}[4-(1-piperidinyl)-1-piperidinyl]methanone] | 
3 | -6 | Cc1ccccc1-c1ccc(C(=O)N2Cc3ccc(C(=O)N4CCC(N5CCCC5)CC4)n3Cc3ccccc32)cc1 [Example 141, {10-[(2′-Methyl[1,1′-biphenyl]-4-yl)carbonyl]-10,11-dihydro-5H-pyrrolo[2,1-c][1,4]benzodiazepin-3-yl}[4-(1-pyrrolidinyl)-1-piperidinyl]methanone] | 
4 | 88 | COc1ccccc1-c1ccc(C(=O)N2Cc3ccc(C(=O)N4CCC(N5CCCC5)CC4)n3Cc3ccccc32)cc1C [Example 137, {10-[(2′-Methoxy-2-methyl[1,1′-biphenyl]-4-yl)carbonyl]-10,11-dihydro-5H-pyrrolo[2,1-c][1,4]benzodiazepin-3-yl}[4-(1-pyrrolidinyl)-1-piperidinyl]methanone] | 
5 | 29 | Cc1ccccc1-c1ccc(C(=O)N2Cc3ccc(C(=O)NCCCn4ccnc4)n3Cc3ccccc32)cc1 [Example 127, N-[3-(1H-Imidazol-1-yl)propyl]-10-[(2′-methyl[1,1′-biphenyl]-4-yl)carbonyl]-10,11-dihydro-5H-pyrrolo[2,1-c][1,4]benzodiazepine-3-carboxamide] | 
6 | 49 | CN(C)CCCN(C)C(=O)c1ccc2n1Cc1ccccc1N(C(=O)c1ccc(-c3cccc4ccccc34)cc1Cl)C2 [Example 109, 10-[2-Chloro-4-(1-naphthyl)benzoyl]-N-[3-(dimethylamino)propyl]-N-methyl-10,11-dihydro-5H-pyrrolo[2,1-c][1,4]benzodiazepine-3-carboxamide] | 
7 | 54 | COc1cc(C(=O)N2Cc3ccc(C(=O)N4CCC(N5CCCCC5)CC4)n3Cc3ccccc32)ccc1-c1cccc2ccccc12 [Example 118, {10-[3-Methoxy-4-(1-naphthyl)-benzoyl]-10,11-dihydro-5H-pyrrolo[2,1-c][1,4]benzodiazepin-3-yl}[4-(1-piperidinyl)-1-piperidinyl]methanone] | 
8 | 56 | COc1cc(-c2ccccc2C)c(Cl)cc1C(=O)N1Cc2ccc(C(=O)NCCN3CCCCC3)n2Cc2ccccc21 [Example 155, 10-[(6-Chloro-3-methoxy-2′-methyl[1,1′-biphenyl]-4-yl)carbonyl]-N-[2-(1-piperidinyl)ethyl]-10,11-dihydro-5H-pyrrolo[2,1-c][1,4]benzodiazepine-3-carboxamide] | 
9 | 37 | Cc1cc(C(=O)N2Cc3ccc(C(=O)N(CCCN(C)C)CCCN(C)C)n3Cc3ccccc32)ccc1-c1ccccc1C(F)(F)F [Example 3, 10-[(2-Methyl-2′-trifluoromethyl-[1,1′-biphenyl]-4-yl)-carbonyl]-10,11-dihydro-5H-pyrrolo[2,1-c][1,4]benzodiazepine-3-carboxylic acid bis-(3-dimethylamino-propyl)-amide] | 
10 | 63 | COc1ccccc1-c1ccc(C(=O)N2Cc3ccc(C(=O)NCCN4CCCCC4)n3Cc3ccccc32)cc1 [Example 152, 10-[(2′-Methoxy[1,1′-biphenyl]-4-yl)carbonyl]-N-[2-(1-piperidinyl)ethyl]-10,11-dihydro-5H-pyrrolo[2,1-c][1,4]benzodiazepine-3-carboxamide] | 

The remaining lines, values behind:

Row | Molecule | inhibition at 0.1 µM [%] | OT % inhibition @ 100% nM [%]
11 | COc1cc(C(=O)N2Cc3ccc(C(=O)N4CCC[C@H]4CN4CCCC4)n3Cc3ccccc32)ccc1-c1cccc2ccccc12 [Example 262, {10-[3-Methoxy-4-(1-naphthyl)benzoyl]-10,11-dihydro-5H-pyrrolo[2,1-c][1,4]benzodiazepin-3-yl}[(2S)-2-(1-pyrrolidinylmethyl)pyrrolidinyl]methanone] |  | 76
12 | COc1cc(C(=O)N2Cc3ccc(C(=O)N4CCC[C@H]4CN4CCCC4)n3Cc3ccccc32)ccc1-c1ccccc1Cl [Example 33, {[10-(2-Methoxy)-2′-chloro-[1,1′-biphenyl]-4-yl]carbonyl}-[(2S)-[(2-pyrrolidin-1-yl)methyl]pyrrolidin-1-yl]-10,11-dihydro-5H-pyrrolo[2,1-c][1,4]benzodiazepin-3-yl-methanone] |  | 101
13 | {10-[(2,2′-Dimethoxy[1,1′-biphenyl]-4-yl)carbonyl]-10,11-dihydro-5H-pyrrolo[2,1-c][1,4]benzodiazepin-3-yl}(4-isopropyl-1-piperazinyl)methanone [Example 244] |  | 68
14 | Cc1ccccc1-c1ccc(C(=O)N2Cc3ccc(C(=O)N4CC[C@@H](N(C)C)C4)n3Cc3ccccc32)cc1 [Example 280, [(3R)-3-(Dimethylamino)pyrrolidinyl]{10-[(2′-methyl[1,1′-biphenyl]-4-yl)carbonyl]-10,11-dihydro-5H-pyrrolo[2,1-c][1,4]benzodiazepin-3-yl}methanone] |  | 95
15 | COc1cccc(-c2cc(OC)c(C(=O)N3Cc4ccc(C(=O)N5CCN(CCN6CCOCC6)CC5)n4Cc4ccccc43)cc2Cl)c1 [Example 212, {10-[(6-Chloro-3,3′-dimethoxy[1,1′-biphenyl]-4-yl)carbonyl]-10,11-dihydro-5H-pyrrolo[2,1-c][1,4]benzodiazepin-3-yl}{4-[2-(4-morpholinyl)ethyl]-1-piperazinyi}methanone] |  | 95
16 | Cc1ccccc1-c1ccc(C(=O)N2Cc3ccc(C(=O)N4CCC[C@H]4CN4CCCC4)n3Cc3ccccc32)cc1 [Example 264, {10-[(2′-Methyl[1,1′-biphenyl]-4-yl)carbonyl]-10,11-dihydro-5H-pyrrolo[2,1-c][1,4]benzodiazepin-3-yl}[(2S)-2-(1-pyrrolidinylmethyl)pyrrolidinyl]methanone] |  | 94
17 | COc1cc(C(=O)N2Cc3ccc(C(=O)N4CC[C@@H](N(C)C)C4)n3Cc3ccccc32)ccc1-n1c(C)ccc1C [Example 322, [(3R)-3-(Dimethylamino)pyrrolidinyl]{10-[4-(2,5-dimethyl-1H-pyrrol-1-yl)-3-methoxybenzoyl]-10,11-dihydro-5H-pyrrolo[2,1-c][1,4]benzodiazepin-3-yl}methanone] |  | 66
